Data taken from patent publication US10300155B2, “Alpha-synuclein ligands” (Washington University, priority 2015, dated 2019).
Several values for one entry are separate records, joined by “and”; a condition that tells them apart may be missing. Equal entries are not always repeated. Where two headings read alike, the source gives them in different places.

Key:
α-synuclein fibrils [1] = target: T1, α-synuclein fibrils (Homo sapiens, UniProt P37840); assay: Thioflavin T competition assay (Example 130, Table 9), α-synuclein fibrils; format: binding
T1 construct: made in house; host or cells: E. coli BL21(DE3)RIL
Protocol: Freshly transformed BL21 colonies were inoculated into 2 L baffled flasks containing 250 ml sterilized TB (1.2% bactotryptone, 2.4% yeast extract, 0.4% glycerol, 0.17 M KH2PO4, 0.72 M K2HPO4) with 50 μg/ml ampicillin, and incubated overnight at 37° C. with shaking.
Competition assays used a fixed concentration of α-syn, Aβ, or tau fibrils (1 μM), consisting of 3 μM, 50 nM and 4 μM of ThioflavinT respectively. […] To optimize the determination of selectivity, assays for all three fibril species were set up in parallel using a common set of intermediate compound dilutions for each analog. Reactions were incubated at room temperature for 1.5 h before quantifying bound ligand as described above for the saturation binding assay. […] All data points were performed in triplicate. Nonspecific fluorescence was measured in parallel reactions containing ThioT plus each concentration of competitor but no fibrils, and these measurements were subtracted from the reactions with fibrils to yield fibril-specific fluorescence. Data were analyzed using Graphpad. Prism software (version 4.0) to obtain EC50 values by fitting the data to the equation Y=bottom+(top-bottom)/(1+10^(x−log EC50)).

α-synuclein fibrils [2] = target: T1, α-synuclein fibrils; assay: ThT competitive assay for α-synuclein fibrils (Table 1); format: binding; settings: for EC50: α-synuclein fibrils
Protocol: Upon binding to amyloid fibrils, a peak at approximately 440 nm becomes dominant with the fluorescent emission maximum shifted to 480 nm. This is accompanied by a strong enhancement of the fluorescence.
α-Synuclein recombinant protein was produced in E. coli. […] Freshly transformed BL21 colonies were inoculated into 2 L baffled flasks containing 250 mL sterilized TB (1.2% bactotryptone, 2.4% yeast extract, 0.4% glycerol, 0.17 M KH2PO4, 0.72 M K2HPO4) with 50 μg/ml ampicillin, and incubated overnight at 37° C. with shaking.
To determine the concentration of fibrils, the reaction mixture (100 μL) was centrifuged at 18,000×g for 10 minutes to separate fibrils from monomer. The α-synuclein monomer and other soluble proteins in the supernatant were removed, and the fibril pellet was resuspended in 100 μL solution of Tris-HCl (20 mM) and NaCl (100 mM). This fibril suspension was used in a bicinchoninic acid (BCA) protein assay along with a bovine serum albumin (BSA) standard curve to determine the concentration of fibrils in the 72 hour fibril reaction mixture.
To prepare the fibrils for performing binding assays, the fibril reaction mixture prepared above was centrifuged at 18,000×g for 10 minutes.
Once the ThT-α-synuclein saturation binding curve and dissociation constant (Kd) were determined the competitive assay for determining the binding affinity of various test compounds was conducted. […] The mixture was incubated at room temperature for 60 minutes on the shaking plate. The fluorescent intensity for each cell was measured by the fluorescence reader at λex and λem. The Ki value for each compound was calculated by the corresponding inhibition curve.
The Ki values were derived from the EC50 values using the Cheng-Prusoff equation: Ki=EC50/(1+[radioligand]/Kd). See FIGS. 17.1-31.2 for the inhibition curves for each compound in the ThioT competitive binding assay.

tau fibrils = tau fibrils (Homo sapiens, UniProt P10636); assay: ThT competitive assay for tau fibrils (Table 3); format: binding; design: made in house; host or cells: E. coli; settings: for EC50: tau fibrils
Protocol: Tau fibril recombinant protein was produced in E. coli. Additional preparation was performed in a similar fashion to Example 115.

Aβ fibrils = Aβ fibrils (Homo sapiens, UniProt P05067); assay: ThT competitive assay for Aβ fibrils (Table 2); format: binding; design: made in house; host or cells: E. coli; settings: for EC50: Aβ fibrils
Protocol: […] recombinant protein was produced in E. coli. Additional preparation was performed in a similar fashion to Example 115. […] The inhibitor that binds with highest affinity to Aβ fibrils has the lowest dissociation constant (Ki).

[3] = Biodistribution in male Balb/C mice; format: in vivo; settings: for Biodistribution: Blood / Biodistribution: Brain / Biodistribution: Fat / Biodistribution: Heart / Biodistribution: Kidney / Biodistribution: Liver / Biodistribution: Lung / Biodistribution: Muscle / Biodistribution: Pancreas / Biodistribution: Spleen: tail vein, mean ± SD, n = 4
Protocol: For the biodistribution studies, 100˜130 μCi of [^11C] TZ-20-35 in ˜100 μL of 10% ethanol/saline solution (v/v) was injected via the tail vein into mature male Balb/C mice (19-24 g) under anesthesia (2.5% isoflurane in oxygen at a flow rate of 1 mL/min). A group of at least four […] were used for each time point. […] The whole brain was quickly harvested. At the same time, samples of blood, heart, lung, liver, spleen, pancreas, kidney, muscle, fat, and tail were dissected. All the tissue samples were collected in tared tubes and counted in an automated gamma counter (Beckman Gamma 8000 well counter) with standards, prepared by diluting the injectate. The counted tissues were then weighed, and the % ID/g was calculated (Table 4).

[4] = average, read-out: α-synuclein EC50 (avg)
[5] = average, read-out: α-synuclein Ki (avg)
[6] = individual determinations, read-out: α-synuclein EC50
[7] = individual determinations, read-out: α-synuclein Ki
[8] = average, read-out: Ki (nM) α-syn (avg)
[9] = individual determinations, read-out: Ki (nM) α-syn
[10] = average, read-out: EC50 (nM) EC50 (avg)
[11] = individual determinations, read-out: EC50 (nM) EC50
[12] = average, read-out: Ki (nM) Tau (avg)
[13] = individual determinations, read-out: Ki (nM) Tau
[14] = average, read-out: EC50m (nM) EC50 (avg)
[15] = individual determinations, read-out: EC50m (nM) EC50
[16] = average, read-out: EC50(nM) EC50 (avg)
[17] = individual determinations, read-out: EC50(nM) EC50
[18] = average, read-out: Ki (nM) Aβ (avg)
[19] = individual determinations, read-out: Ki (nM) Aβ

Sequence of Aβ fibrils (P05067 672-713 limits assumed): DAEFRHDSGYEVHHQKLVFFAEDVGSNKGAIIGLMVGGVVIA
Sequence of tau fibrils (P10636 560-692 limits assumed): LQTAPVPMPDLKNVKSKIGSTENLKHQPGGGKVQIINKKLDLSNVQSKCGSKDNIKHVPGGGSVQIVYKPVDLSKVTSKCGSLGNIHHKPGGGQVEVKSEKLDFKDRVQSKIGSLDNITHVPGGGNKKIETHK

## COc1cc(/C=C/c2ccc3cc(OC(C)C)ccc3n2)ccn1 [TZ-36-138]
α-synuclein fibrils [1]; [4]
  EC50: 128 nM
α-synuclein fibrils [1]; [5]
  Ki: 49 nM
α-synuclein fibrils [1]; [6]
  EC50: 128 nM
α-synuclein fibrils [1]; [7]
  Ki: 49 nM
α-synuclein fibrils [2]; [8]
  Ki: 49 nM
α-synuclein fibrils [2]; [9]
  Ki: 49 nM
α-synuclein fibrils [2]; [10]
  EC50: 128 nM
α-synuclein fibrils [2]; [11]
  EC50: 128 nM

## COc1ccc2nc(C#Cc3ccnc(OC)c3)ccc2c1 [TZ-36-142]
α-synuclein fibrils [1]; [4]
  EC50: 609 nM
α-synuclein fibrils [1]; [5]
  Ki: 233 nM
α-synuclein fibrils [1]; [6]
  EC50: 609 nM
α-synuclein fibrils [1]; [7]
  Ki: 233 nM
α-synuclein fibrils [2]; [8]
  Ki: 233 nM
α-synuclein fibrils [2]; [9]
  Ki: 233 nM
α-synuclein fibrils [2]; [10]
  EC50: 609 nM
α-synuclein fibrils [2]; [11]
  EC50: 609 nM

## COc1ccc2nc(/C=C/c3ccnc(Br)c3)ccc2c1 [TZ-36-36]
α-synuclein fibrils [1]; [4]
  EC50: 396 nM
α-synuclein fibrils [1]; [5]
  Ki: 152 nM
α-synuclein fibrils [1]; [6]
  EC50: 335 nM and 457 nM
α-synuclein fibrils [1]; [7]
  Ki: 128 nM and 175 nM
α-synuclein fibrils [2]; [8]
  Ki: 152 nM
α-synuclein fibrils [2]; [9]
  Ki: 128 nM and 175 nM
α-synuclein fibrils [2]; [10]
  EC50: 396 nM
α-synuclein fibrils [2]; [11]
  EC50: 335 nM and 457 nM

## COc1cc(/C=C/c2ccc3cc(O)ccc3n2)ccn1 [TZ-36-146]
α-synuclein fibrils [1]; [4]
  EC50: 332 nM
α-synuclein fibrils [1]; [5]
  Ki: 127 nM
α-synuclein fibrils [2]; [8]
  Ki: 127 nM
α-synuclein fibrils [2]; [10]
  EC50: 332 nM
Tau fibrils; [12]
  Ki: 113 nM
Tau fibrils; [13]
  Ki: 124 nM and 102 nM
Tau fibrils; [14]
  EC50: 278 nM
Tau fibrils; [15]
  EC50: 305 nM and 251 nM

## COc1ccc2nc(/C=C/c3ccoc3)ccc2c1 [TZ-36-54]
α-synuclein fibrils [1]; [4]
  EC50: 178 nM
α-synuclein fibrils [1]; [5]
  Ki: 68.5 nM
α-synuclein fibrils [1]; [6]
  EC50: 169 nM and 188 nM
α-synuclein fibrils [1]; [7]
  Ki: 65 nM and 72 nM
α-synuclein fibrils [2]; [8]
  Ki: 68.5 nM
α-synuclein fibrils [2]; [9]
  Ki: 65 nM and 72 nM
α-synuclein fibrils [2]; [10]
  EC50: 178 nM
α-synuclein fibrils [2]; [11]
  EC50: 169 nM and 188 nM

## COc1ccc(/C=C/c2cccs2)cc1 [TZ-34-26]
Aβ fibrils; [16]
  EC50: 6660 nM
Aβ fibrils; [17]
  EC50: 6660 nM
Aβ fibrils; [18]
  Ki: 2500 nM
Aβ fibrils; [19]
  Ki: 2500 nM
α-synuclein fibrils [2]; [8]
  Ki: 176 nM
α-synuclein fibrils [2]; [9]
  Ki: 51.3 nM and 283 nM and 126 nM and 291 nM and 82 nM and 221 nM
α-synuclein fibrils [2]; [10]
  EC50: 460 nM
α-synuclein fibrils [2]; [11]
  EC50: 134 nM and 739 nM and 329 nM and 762 nM and 214 nM and 580 nM
Tau fibrils; [12]
  Ki: 1370 nM
Tau fibrils; [13]
  Ki: 1370 nM
Tau fibrils; [14]
  EC50: 3350 nM
Tau fibrils; [15]
  EC50: 3350 nM

## COc1ccc(/C=C/c2ccsc2)cc1 [TZ-34-28]
α-synuclein fibrils [2]; [8]
  Ki: 172 nM
α-synuclein fibrils [2]; [9]
  Ki: 43.1 nM and 167 nM and 113 nM and 104 nM and 256 nM and 347 nM
α-synuclein fibrils [2]; [10]
  EC50: 449 nM
α-synuclein fibrils [2]; [11]
  EC50: 113 nM and 437 nM and 297 nM and 271 nM and 670 nM and 907 nM
Tau fibrils; [12]
  Ki: 876 nM
Tau fibrils; [13]
  Ki: 600 nM and 1150 nM
Tau fibrils; [14]
  EC50: 2150 nM
Tau fibrils; [15]
  EC50: 1470 nM and 2830 nM

## COc1ccc(/C=C/c2ccco2)cc1 [TZ-34-24]
Aβ fibrils; [16]
  EC50: 2280 nM
Aβ fibrils; [17]
  EC50: 2560 nM and 2000 nM
Aβ fibrils; [18]
  Ki: 888 nM
Aβ fibrils; [19]
  Ki: 961 nM and 815 nM
α-synuclein fibrils [2]; [8]
  Ki: 345 nM
α-synuclein fibrils [2]; [9]
  Ki: 610 nM and 163 nM and 262 nM
α-synuclein fibrils [2]; [10]
  EC50: 902 nM
α-synuclein fibrils [2]; [11]
  EC50: 1590 nM and 426 nM and 686 nM

## COCOc1ccc2nc(/C=C/c3ccnc(OC)c3)ccc2c1 [TZ-36-144]
α-synuclein fibrils [1]; [4]
  EC50: 110 nM
α-synuclein fibrils [1]; [5]
  Ki: 42 nM
α-synuclein fibrils [1]; [6]
  EC50: 110 nM
α-synuclein fibrils [1]; [7]
  Ki: 42 nM
α-synuclein fibrils [2]; [8]
  Ki: 42 nM
α-synuclein fibrils [2]; [9]
  Ki: 42 nM
α-synuclein fibrils [2]; [10]
  EC50: 110 nM
α-synuclein fibrils [2]; [11]
  EC50: 110 nM

## COC(=O)c1ccc(/C=C/c2ccncc2)cc1 [[^11C]TZ-20-35]
[3]; 5 to 60 min post injection
  brain uptake and washout (assessment in words): Brain uptake and the washout kinetics were very good
[3]; 5 min post injection
  Biodistribution: Blood: 5.21 ± 0.20 % ID/g
  Biodistribution: Brain: 5.71 % ID/g and 5.71 ± 0.44 % ID/g
  Biodistribution: Fat: 0.90 ± 0.42 % ID/g
  Biodistribution: Heart: 4.72 ± 0.34 % ID/g
  Biodistribution: Kidney: 4.73 ± 0.41 % ID/g
  Biodistribution: Liver: 4.25 ± 0.36 % ID/g
  Biodistribution: Lung: 4.78 ± 0.21 % ID/g
  Biodistribution: Muscle: 4.06 ± 0.13 % ID/g
  Biodistribution: Pancreas: 3.64 ± 0.44 % ID/g
  Biodistribution: Spleen: 4.60 ± 0.16 % ID/g
[3]; 30 min post injection
  organ recovery: 52%
  Biodistribution: Blood: 2.79 ± 0.43 % ID/g
  Biodistribution: Brain: 2.43 % ID/g and 2.43 ± 0.41 % ID/g
  Biodistribution: Fat: 0.86 ± 0.07 % ID/g
  Biodistribution: Heart: 2.61 ± 0.54 % ID/g
  Biodistribution: Kidney: 4.43 ± 0.42 % ID/g
  Biodistribution: Liver: 8.72 ± 0.37 % ID/g
  Biodistribution: Lung: 2.94 ± 0.38 % ID/g
  Biodistribution: Muscle: 2.25 ± 0.33 % ID/g
  Biodistribution: Pancreas: 3.54 ± 0.90 % ID/g
  Biodistribution: Spleen: 3.44 ± 0.23 % ID/g
[3]; 60 min post injection
  organ recovery: 34%
  Biodistribution: Blood: 1.75 ± 0.25 % ID/g
  Biodistribution: Brain: 1.68 % ID/g and 1.68 ± 0.26 % ID/g
  Biodistribution: Fat: 0.58 ± 0.09 % ID/g
  Biodistribution: Heart: 1.80 ± 0.18 % ID/g
  Biodistribution: Kidney: 4.23 ± 0.47 % ID/g
  Biodistribution: Liver: 10.17 ± 1.08 % ID/g
  Biodistribution: Lung: 2.21 ± 0.44 % ID/g
  Biodistribution: Muscle: 1.18 ± 0.10 % ID/g
  Biodistribution: Pancreas: 5.42 ± 1.25 % ID/g
  Biodistribution: Spleen: 3.30 ± 0.36 % ID/g

## COc1ccc(/C=C/c2ccc(-c3cnc(C)s3)s2)cc1 [TZ-34-43]
Aβ fibrils; [16]
  EC50: 854 nM
Aβ fibrils; [17]
  EC50: 854 nM
Aβ fibrils; [18]
  Ki: 320 nM
Aβ fibrils; [19]
  Ki: 320 nM
α-synuclein fibrils [2]; [8]
  Ki: 134 nM
α-synuclein fibrils [2]; [10]
  EC50: 351 nM
Tau fibrils; [12]
  Ki: 512 nM
Tau fibrils; [13]
  Ki: 512 nM
Tau fibrils; [14]
  EC50: 1260 nM
Tau fibrils; [15]
  EC50: 1260 nM
